{
  "source": "paper PMC8020795",
  "about": "(Proceedings of the National Academy of Sciences of the …, 2021)",
  "key": {"CXCR4+CD34+ stem cells": {"system": "CXCR4+CD34+ stem cells", "test": "CXCR4+CD34+ stem cell mobilization", "assay_type": "in vivo, C57BL/6 mice", "settings": "6 mg/kg SC, peripheral blood 2 h after dosing", "description": "Cy7, and CD206-APC (BioLegend, San Diego, CA) antibodies, as previously described.[8] Flow cytometry data were acquired on a BD FACSAria III flow cytometer and analyzed with […]\nC57BL/6 male mice were treated with potential CXCR4 antagonist individually by subcutaneous injection, and then blood samples containing mobilized stem/progenitor cells were collected 2 hours later. After labeled with specific antibodies, including APC-conjugated anti-CXCR4 (clone 2B11; eBioscience) and FITC-conjugated anti-CD34 (clone RAM34; eBioscience), cells were washed, characterized and quantified by flow cytometer (Guava Technologies, Hayward, CA, USA). Each data point included at least 60,000 events for analysis of other cell types.\nWestern blotting was conducted by following standard procedures. HCA-1 or JHH-7 cells (10^5 cells per well) were seeded in 12-well plates (Costar, IL), incubated for 12 h and […]\nReverse transcription quantitative real time PCR\nTotal RNA was extracted from HCA-1 cells using the RNeasy Mini Kit (Qiagen, CA, USA). cDNAs were synthesized using the High-Capicity cDNA Reverse Transcription Kit (Applied Biosystems, CA, USA). Primers specific for Slug, Fn1, Cdh2, Vim, Foxc2, Zeb1, Zeb2, Twist1, Cdh1, Mta3, Cldn3, Cldn5, β-actin and GAPDH were used, and relative gene expression was determined using Real-Time SYBR Green PCR Master Mix (Applied Biosystems, CA, USA) on a QPCR System. […]"}, "hERG (human K+ channel)": {"target": "T1, hERG (human K+ channel) (Homo sapiens, UniProt Q12809)", "T1 construct": "host or cells: CHO (hERG-CHO)", "T1 sequence (Q12809 whole entry)": "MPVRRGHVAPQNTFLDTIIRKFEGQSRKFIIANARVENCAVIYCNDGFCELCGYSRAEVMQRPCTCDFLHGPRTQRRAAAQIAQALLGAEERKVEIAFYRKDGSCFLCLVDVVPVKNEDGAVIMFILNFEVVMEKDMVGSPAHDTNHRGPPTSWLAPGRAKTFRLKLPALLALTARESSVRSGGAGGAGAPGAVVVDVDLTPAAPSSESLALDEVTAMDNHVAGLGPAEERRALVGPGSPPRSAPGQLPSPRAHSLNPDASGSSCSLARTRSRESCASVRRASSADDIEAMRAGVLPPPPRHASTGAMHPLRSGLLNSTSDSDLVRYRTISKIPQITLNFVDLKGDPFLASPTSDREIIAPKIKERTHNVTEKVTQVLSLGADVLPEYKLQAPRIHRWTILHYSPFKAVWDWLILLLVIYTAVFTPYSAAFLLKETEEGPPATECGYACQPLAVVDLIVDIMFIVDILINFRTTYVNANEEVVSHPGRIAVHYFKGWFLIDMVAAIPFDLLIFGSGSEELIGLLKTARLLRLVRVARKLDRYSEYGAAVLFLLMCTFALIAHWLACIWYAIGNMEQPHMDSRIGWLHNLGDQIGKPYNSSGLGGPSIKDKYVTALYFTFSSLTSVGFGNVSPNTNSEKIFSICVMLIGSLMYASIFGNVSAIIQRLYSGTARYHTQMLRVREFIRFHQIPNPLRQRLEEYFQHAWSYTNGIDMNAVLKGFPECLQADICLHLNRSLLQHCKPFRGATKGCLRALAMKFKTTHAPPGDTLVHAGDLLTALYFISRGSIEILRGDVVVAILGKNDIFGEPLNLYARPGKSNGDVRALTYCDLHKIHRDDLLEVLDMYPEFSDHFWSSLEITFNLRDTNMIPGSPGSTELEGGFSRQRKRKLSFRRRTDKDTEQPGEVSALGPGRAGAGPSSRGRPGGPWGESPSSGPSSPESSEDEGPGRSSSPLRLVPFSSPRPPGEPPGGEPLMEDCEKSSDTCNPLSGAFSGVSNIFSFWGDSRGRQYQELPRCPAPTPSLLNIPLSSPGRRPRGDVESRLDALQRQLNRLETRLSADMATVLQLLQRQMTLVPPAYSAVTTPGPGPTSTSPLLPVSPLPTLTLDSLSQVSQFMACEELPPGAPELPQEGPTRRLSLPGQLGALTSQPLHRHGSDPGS", "test": "hERG patch-clamp assay (hERG-CHO, automated patch-clamp)", "assay_type": "cell-based", "from_the_text": "(§1) page 16: Table: List of genes examined by real-time PCR and the primer sequences used. Genes Forward primers Reverse primers Slug [NT] Fn1 [NT] Cdh2 […] Foxc2 [NT] Zeb1 [NT] Zeb2 [NT] Twist1 [NT] Cdh1 [NT] Mta3 [NT] Cldn3 [NT] Cldn5 [NT] β-actin […] [NT] Off-target standard assays Methods employed in this study have been adapted from the scientific literature to maximize reliability and reproducibility. Reference standards were run as an integral part of each assay to ensure the validity of the results obtained. Radioligand binding Assays were performed under conditions described in the accompanying \"Methods\" section of this report by Eurofins Panlabs, Inc (Taipei, Taiwan, ROC). hERG patch-clamp assay BPRCX807 were tested in the hERG (hERG-CHO, automated patch-clamp) assay and determined at Eurofins Panlabs (Missouri, USA). The experiment was accepted in accordance with Eurofins validation Standard Operating Procedure. Selectivity Screening of various chemokine receptors The results were performed by Eurofins DiscoverX (Fremont, California, USA). The S15"}, "hERG": {"target": "T2, hERG (Homo sapiens, UniProt Q12809)", "T2 construct": "host or cells: CHO (hERG-CHO)", "T2 sequence (Q12809 whole entry)": "as above", "test": "hERG patch-clamp assay (hERG-CHO, automated patch-clamp)", "assay_type": "cell-based", "settings": "human, CHO cells that express hERG", "from_the_text": "as §1"}, "HCA-1 cells": {"system": "HCA-1 cells", "test": "Wound healing assay", "assay_type": "cell-based, murine", "settings": "CXCL12 100 ng/mL, BPRCX807 10 μM, 24, 48, 72 h", "description": "[3-(2-Aminomethyl-oxazol-4-yl)-propyl]-[3-(tert-butoxycarbonyl-cyclohexyl-amino)- propyl]-carbamic acid tert-butyl ester (Linker 1). A mixture of L1-6 (10.35 g, 16.5 mmol) and 10% Pd/C (4.66 g) in iso-propanol (310 mL) was stirred under H2(g) at 50 °C for 15 h.\nThe resulting mixture was filtered, and the filtrate was concentrated to afford Linker 1 (7.23 g, […]\nWound healing and invasion assays\nCell migration ability was measured by wound healing assay. HCA-1 cells (5 × 10^5 cells per well) were seeded onto 12-well plates and incubated overnight. When the cell confluence exceeded 90%, scratch wounds were made by scraping a straight line in the middle of the cell layer using the tip of a 1000 µL pipette. After washing the cells with PBS, the cells were incubated in serum-free medium under different treatment conditions (control, 100 ng/mL CXCL12, and 10 µM BPRCX807 with 100 ng/mL CXCL12). Then, 3-4 fields (40×) of each group were randomly chosen and observed by a microscope (IX83, Olympus, Japan) at time points of 0 h, 24h, 48 h and 72 h. For the invasion assay, HCA-1 cells were suspended in RPMI 1640 containing 0.5% FBS and then preincubated with the indicated concentrations of compounds for 10 min at 37 °C. […] After 17.5 h of incubation at 37 °C, the cells in both chambers of the inserts were measured with a CellTiter-Glo Luminescent Cell Viability Assay (Promega, Wisconsin). […]"}},
  "data": [
    {"compound": "Cc1cc(NC2CCN(C(=O)CCNCC(=O)O)CC2)nc(NCc2nc(CCCNCCCNC3CCCCC3)co2)n1", "note": "[BPRCX807]", "values": [
      {"measurement": "Number of CXCR4+CD34+ stem cells mobilized, relative to AMD3100", "setting": "CXCR4+CD34+ stem cells", "value": "roughly 1.5 fold"},
      {"measurement": "IC50", "setting": "hERG (human K+ channel)", "value": "> 100", "unit": "µM"},
      {"measurement": "inhibition at 1 µM", "setting": "hERG; 1 µM", "value": 13.8, "unit": "%"},
      {"measurement": "inhibition at 10 µM", "setting": "hERG; 10 µM", "value": 9, "unit": "%"},
      {"measurement": "inhibition at 100 µM", "setting": "hERG; 100 µM", "value": 17.4, "unit": "%"},
      {"measurement": "CXCL12-induced wound closure rate", "setting": "HCA-1 cells", "value": "significantly suppressed"}
    ]}
  ]
}
